# Data taken from patent US6046228A, “Anti-viral pharmaceutical compositions containing saturated 1,2-dithiaheterocyclic compounds and uses thereof” (priority 1999, dated 2000).
# Where two headings read alike, the source gives them in different places.
# What was measured:
# HIV-2ROD = experiment: XTT cytopathicity assay, other retroviruses; type: cell-based; details: Human immunodeficiency virus 2, CEM-SS
# Procedure: (§1) Initial anti-HIV screening was performed with CEM-SS cells and HIV-1RFusing the XTT cytoprotection assay as previously described (Weislow et al., J. National Cancer Inst. 81: 577-586, (1989)). HIV-1 isolates included common laboratory stains (RF, IIIB and MN), as well as a panel of HIV-1 clinical isolates (Cushman et al., J. Med. Chem. 37: 3040-3050, (1994)). The pyridone-resistant HIV-1A17 isolate (Nunberg et al., J. Virol., 65: 4887-4892 (1991)) was obtained from Emilio Emini at Merck Sharpe and Dohme Laboratories. Phytohemagglutinin-stimulated human peripheral blood lymphocytes (PBLs) and fresh monocyte-macrophage (Mono/MF) cultures were prepared and utilized in antiviral assays as previously described (Rice et al., Proc. Nat'l. Academy Science, USA 90: 9721-9724, (1993)); (Cushman et al., J. Med. Chem. 37: 3040-3050, (1994)). EC50 values for these cultures indicate the drug concentration that provided a 50% reduction in viral p24 production. […] The compounds can be synthesized according to the teachings of Singh et al., Sulfur Letters 8: 107-114, (1988). The 4,5-cis-dihydroxy(1,1-dioxy-1,2,-dithiohexane) compound (NSC 624151) has been abbreviated as 624151 for convenience. […]
# HIV-1ADA = experiment: antiviral assay in monocyte-macrophage cultures (p24); type: cell-based; details: Human immunodeficiency virus 1
# Procedure: as §1, with “convenience. MT-2, MT-4, U1, HeLa-CD4-LTR-β-gal and 174xCEM cells were obtained from the AIDS Research and Reference Program (National Institute of Allergy and Infectious Disease, National Institutes of Health, Bethesda, Md. USA), as were the HIV-2MS and the AZT-resistant HIV-1G910-6 isolates.” for “convenience.”
# HIV-1NL4-3 = experiment: XTT cytopathicity assay, NL4-3 without RT mutation; type: cell-based; details: Human immunodeficiency virus 1, NL43; MT-2, NL4-3, RT mutation None
# Procedure: as §1
# Pr55^gag = experiment: immunoblot of viral proteins in U1 cells (Gag precursor processing); type: cell-based, HIV-1; details: FIG. 3(B), in words
# Procedure: U1 cells latently infected with two copies of HIV-1 proviral DNA per cell (Clous et al., J. Immunol. 142: 431-438, (1989)) were treated with 5 ng/ml tumor necrosis factor-α(TNF-α) for 24 hours to stimulate production of HIV-1 virions, after which various concentrations of 624151 were added to the cultures and incubated for an additional 48 hours. Cultures were analyzed for cell viability by the XTT reduction assay and cells were counted and scored for viability by trypan blue exclusion. Cells pellets were lysed (0.5% Triton X-100, 300 mM NaCl, 50 mM Tris-HCl, pH 7.6, 10 μg/ml each of Leupeptin and aprotinin (Boehringer Mannheim), 1.8 mg/ml iodoacetamide (Sigma Chemical Co., St. Louis, Mo.) and 1.0 mg/ml the protease inhibitor Pefabloc SC (Boehringer Mannheim at 4° C. for 15 min. and then quantitated for viral p24 content by ELISA. Cell-free supernatant samples were collected and analyzed for virus content by p24 ELISA, and infectivity in cultures of 174xCEM cells. Briefly, serial 1/2 dilutions of the supernatant were placed with 5×10^3 174xCEM cells and cultured for 7 days, cell supernatants were analyzed for viral p24 content, and the number of infectious units/ml calculated. In addition, cell free supernatants were centrifuged at 17,000×g for 1 hour at 4° C. to collect virion pellets. […]
# HIV-1 ROJO(SI) = experiment: antiviral assay in PBL (p24), clinical isolate ROJO; type: cell-based; details: Human immunodeficiency virus 1, cell-free p24
# Procedure: as §1
smiles,measurement,setting,value
"O=S1(=O)C[C@H](O)[C@H](O)CS1 (relative stereo) [NSC 624151, cis-1,1-dioxo[1,2]dithiane-4,5-diol]",EC50,HIV-2ROD,15.6 µM
same,EC50,"HIV-1ADA; HIV-1ADA, monocyte/macrophage cultures, 50% reduction in p24, read-out: Mo/M.PHI. EC50",8 µM
same,EC50,"HIV-1ADA; Mo/M.PHI., ADA, cell-free p24, Table 2, read-out: EC50",2.1 µM
same,EC50,HIV-1NL4-3,16.6 µM
same,"Pr55^gag processing to p41, p24, p9 and p7 proteins",Pr55^gag,prevents processing of precursor proteins to mature viral proteins
same,"Pr55^gag processing to p41, p24, p9 and p7 proteins",Pr55^gag; listed as 624151,"decrease in Pr55^gag processing to the p41, p24, p9 and p7 proteins"
same,EC50,HIV-1 ROJO(SI),25 µM
